The subject of data set [1] is PCPA-induced mouse model of depression and anxiety. As to the kind of experiment: Tail suspension test (TST) in PCPA model. Format: in vivo, C57BL/6 male mice. As to conditions: for Immobility time in TST: PCPA model, 5-OH-DMT 15 mg/kg i.p. or WAY100635 1 mg/kg i.p. for 3 d, versus control or model group, Fig. 6F. As to the method: (§1) Mice in the control group were fed with saline solution containing 0.1% DMSO (vehicle) for 3 d. Mice that were injected subcutaneously with 150 mg/kg PCPA twice daily for 3 d developed symptoms of depression. […] For WAY100635 treatment, mice were injected intraperitoneally with 1 mg/kg WAY100635 for 3 d. […] Then, mice were tested for all behaviors.

The test system is the same in data set [2]. As to the kind of experiment: Forced swimming test (FST) in PCPA model. Format: in vivo, C57BL/6 male mice. The note with it: for Immobility time in FST: PCPA model, 5-OH-DMT 15 mg/kg i.p. or WAY100635 1 mg/kg i.p. for 3 d, versus control or model group, Fig. 6G. As to the method: as §1
Data set [3] shares this test system. In words: Sucrose preference test (SPT) in PCPA model. Format: in vivo, C57BL/6 male mice. As to conditions: for Sucrose preference: PCPA model, 5-OH-DMT 15 mg/kg i.p. or WAY100635 1 mg/kg i.p. for 3 d, versus control or model group, Fig. 6H. As to the method:
as §1

Data set [4] has the same test system. As to the kind of experiment: Open-field test (OFT) in PCPA model. Format: in vivo, C57BL/6 male mice. As to conditions: for OFT time spent in center / OFT total distance traveled: PCPA model, 5-OH-DMT 15 mg/kg i.p. or WAY100635 1 mg/kg i.p. for 3 d, versus control or PCPA mice, Fig. 6I. As for the experimental part:
as §1

The next data set concerns the target T1, 5-HT2A receptor (Homo sapiens, UniProt P28223).
T1 construct: expressed in transfected cells; host or cells: HEK 293T
In words: cell-based. Format: cell-based.

Data set [5] concerns CUMS model mice. In words: Open-field test (OFT) in CUMS depression model. The note with it: 15 mg/kg i.p. for 1 week; for OFT time spent in the center / OFT total distance traveled: CUMS mice, regardless of 5-HT1AR knockdown, Fig. 6D.
The subject of data set [6] is CUMS model mice. As to the kind of experiment: Sucrose preference test (SPT) in CUMS depression model. The note with it: 15 mg/kg i.p. for 1 week, versus CUMS model, Fig. 6C.
The target of a further data set is T2, 5-HT1A receptor (Homo sapiens, UniProt P08908).
T2 sequence (P08908 1-422): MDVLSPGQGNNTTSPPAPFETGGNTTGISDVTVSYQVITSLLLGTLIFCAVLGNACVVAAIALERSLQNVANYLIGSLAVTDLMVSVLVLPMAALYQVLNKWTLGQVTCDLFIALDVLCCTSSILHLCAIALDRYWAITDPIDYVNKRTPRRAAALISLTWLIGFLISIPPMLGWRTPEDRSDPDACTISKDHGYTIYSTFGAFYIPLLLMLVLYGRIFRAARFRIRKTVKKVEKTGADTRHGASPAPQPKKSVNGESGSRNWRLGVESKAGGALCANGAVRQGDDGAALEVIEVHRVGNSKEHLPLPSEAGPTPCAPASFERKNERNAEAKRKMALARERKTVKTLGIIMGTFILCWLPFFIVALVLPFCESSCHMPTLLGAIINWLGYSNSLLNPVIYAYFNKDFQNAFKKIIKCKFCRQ
As to the kind of experiment: GloSensor cAMP assay, 5-HT1A Gi signaling in HEK 293T cells. The class given is cell-based. Background: cAMP levels reflect the balance of adenylyl cyclase and phosphodiesterase activity.

Data set [7] deals with mice. In words: Head-twitch response (HTR), side effect detection. Format: in vivo, C57BL/6 male mice. As to conditions: 25 mg/kg i.p., recorded 10 min, in contrast to 5-MeO-DMT, Fig. S10. As for the experimental part: (§2) Then, HTR and HLA were immediately tested. Mice were placed into the observation arena (25 × 25 × 40 cm) under low-light conditions. The number of head-twitch events and total distance were respectively recorded for 10 and 30 min. For the HTR test, the number of head twitches was examined by 2 observers blinded to the treatments via video recordings. For the HLA test, the total distance traveled was measured by using tracking software to process video recordings.

The test system of data set [8] is mice. As to the kind of experiment: Horizontal locomotor activity (HLA), side effect detection. The class given is in vivo, C57BL/6 male mice. The note with it: 25 mg/kg i.p., recorded 30 min, in contrast to 5-MeO-DMT, Fig. S10. As for the experimental part: as §2
A further data set concerns 5-HT1A A365^6.55F mutant. As to the kind of experiment: GloSensor cAMP assay on 5-HT1A mutant A365F. As to conditions: mutant versus WT 5-HT1A, fold less potent, Fig. S7E.
Setting [9] is: PCPA + 5-OH-DMT 15 mg/kg + WAY100635 1 mg/kg i.p. versus PCPA + 5-OH-DMT.

Like-named read-outs stand apart in the source and are kept apart here.

For orientation: EC50 means the concentration needed to bring the measured effect to its halfway point.

T1 sequence (P28223 whole entry): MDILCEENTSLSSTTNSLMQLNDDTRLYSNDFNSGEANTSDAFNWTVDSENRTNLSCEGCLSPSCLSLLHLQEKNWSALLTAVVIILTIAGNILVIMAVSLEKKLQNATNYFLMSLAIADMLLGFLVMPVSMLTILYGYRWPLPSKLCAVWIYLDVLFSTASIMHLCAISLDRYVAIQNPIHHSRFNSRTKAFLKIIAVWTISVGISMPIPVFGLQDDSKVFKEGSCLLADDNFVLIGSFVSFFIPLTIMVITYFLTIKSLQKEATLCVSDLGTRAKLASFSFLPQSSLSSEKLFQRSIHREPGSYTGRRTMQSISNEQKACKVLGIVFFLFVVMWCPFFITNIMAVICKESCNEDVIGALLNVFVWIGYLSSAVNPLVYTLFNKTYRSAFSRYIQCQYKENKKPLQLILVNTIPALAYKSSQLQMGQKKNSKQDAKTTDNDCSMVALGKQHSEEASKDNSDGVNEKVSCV
Procedure for 5-HT1A A365^6.55F mutant: In order to examine the underlying mechanism of ligand selectivity, we introduced a mutation at position A365^6.55, replacing it with phenylalanine.
(§3) The downstream Gαi signaling of 5-HT1A was assessed using the GloSensor cAMP assay (Promega). HEK 293T cells were cultured in DMEM with 10% FBS and 1% penicillin–streptomycin at 37 °C and 5% CO2. Cells were transfected with 5-HT1A constructs and the GloSensor-22F biosensor at a 3:2 ratio. After 24 h, cells were resuspended in CO2-independent medium with 2% GloSensor reagent and plated at 3.5 × 10^5 cells/ml (20 μl/well) into 384-well plates. After 1-h incubation, forskolin (1 μM) and test ligands were added, and luminescence was immediately recorded using an EnVision plate reader (PerkinElmer).
WT or mutant were transfected into HEK293T cells and Glosenser cAMP assay were measured to reflect the activity of 5-HT1AR. The response data was normalized by WT receptor within each individual experiment, with the basal activity for WT as 0, while the fitted Emax of WT as 100. Three independent experiments were conducted (n=3).
Procedure for 5-HT1A receptor: as §3
(§4) An evaluation of the concentration–response curves was carried out using a logistic equation with 3 parameters. Calculations of pEC50 values were performed with the use of the sigmoid 3-parameter equation. In order to assess the significance, a 1-way or 2-way analysis of variance was conducted, followed by Bonferroni’s or Dunnett’s post hoc test. Differences were considered significant when P < 0.05 and are shown as *P < 0.05, **P < 0.01, or ***P < 0.001.
Source text for 5-HT2A receptor: We evaluated the impact of bufotenine derivatives on 6 serotonin receptor subtypes associated with depression (5-HT1A, 5-HT1B, 5-HT1D, 5-HT2A, 5-HT2C, and 5-HT7) using the GloSensor cAMP assay to measure Gi and Gs activation and the IP-One assay to assess Gq activation, thereby detecting signaling activity at each receptor. […] We conducted a thorough pharmacological analysis of bufotenine derivatives to evaluate their hallucinogenic potential via 5-HT2AR activation, comparing their receptor binding profiles and functional activities at 5-HT1AR and 5-HT2AR subtypes.
The downstream Gαq signaling of 5-HT2A was evaluated using the IP-One HTRF assay (Cisbio). HEK 293T cells were cultured in DMEM with 10% FBS and 1% penicillin–streptomycin at 37 °C, 5% CO2. After 24 h of transfection, cells were resuspended in stimulation buffer (8 × 10^5 cells/ml) and plated at 7 μl/well into 384-well plates. Ligands diluted in buffer (7 μl) were added and incubated for 1 h at 37 °C. IP-One-d2 and anti-IP-One cryptate (3 μl each) were then added, followed by 30-min incubation at room temperature. HTRF signals were measured using an EnVision reader (PerkinElmer).
as §4

For the molecule `COc1ccccc1N1CCN(CCN(C(=O)C2CCCCC2)c2ccccn2)CC1` [WAY100635, reference compound], the “Immobility time in TST” value in data set [1] is given as “significantly increased immobility time”. Also, in data set [2], the “Immobility time in FST” value was “significantly increased immobility time”. Besides, the Sucrose preference result in data set [3] is “reduced sucrose preference”. For the same molecule, in data set [4], the “OFT time spent in center” value is listed as “less time spent in center” and the “OFT total distance traveled” value is “less total distance traveled”.
Consider `COc1ccc2[nH]cc(CCN(C)C)c2c1` [Compound 5-MeO-DMT, 5-methoxy-N,N-dimethyltryptamine], for which, at 5-HT2A receptor (ratio of EC50 values, times more potent), the “Potency at 5-HT2AR compared to 5-OH-DMT” value is recorded as 100 times. In the data set with CUMS model mice [5], the “OFT time spent in the center” value is listed as “increased” and the “OFT total distance traveled” value is reported as “increased”. Moreover, the “OFT total distance after 5-HT1AR was knocked down” value in the data set on CUMS model mice [5] (CUMS, sh-5-HT1AR versus NC mice) is on record as “reduced total distance”. Further, the Sucrose preference entry in the data set with CUMS model mice [6] is listed as “significantly counteract the reduction in sucrose preference induced by CUMS”.
`CN(C)CCc1c[nH]c2ccc(O)cc12` [Compound 5-OH-DMT, 5-hydroxy-N,N-dimethyltryptamine] yielded an EC50 on 5-HT1A receptor of 0.1 µM. Besides, at 5-HT2A receptor (5-HT2A relative to 5-HT1A, times lower, Fig. 1A), the “Drop in potency with 5-HT2A” value is listed as “roughly 10 times”. In the data set with mice [7], the “Head-twitch response (HTR)” value is given as “somewhat reduced”. Moreover, the “Horizontal locomotor activity (HLA), total distance” value with mice [8] is listed as “somewhat reduced”. In addition, in data set [1] (setting [9]), the “Immobility time in TST, with addition of WAY100635” value was “prolonged the immobility time”. The “Immobility time in TST” value in data set [1] was “shorter immobility durations”. In [2] (setting [9]), the “Immobility time in FST, with addition of WAY100635” value was “prolonged the immobility time”. Moreover, the “Immobility time in FST” value in data set [2] is recorded as “shorter immobility durations”. In addition, the “Sucrose preference, with addition of WAY100635” value in data set [3] (setting [9]) is given as “this increase was reversed by WAY100635”. Moreover, in data set [3], the Sucrose preference entry is “increased sucrose preference”. Besides, in data set [4] (setting [9]), the “OFT time spent in the center, with administration of WAY100635” value is given as “significantly recovered these changes” and the “OFT total distance, with administration of WAY100635” value is “significantly recovered these changes”. Also, in data set [4], the “OFT time spent in center” value was “dramatically increased” and the “OFT total distance traveled” value was “dramatically increased”. Moreover, in the data set on 5-HT1A A365^6.55F mutant, the “Loss in potency at A365^6.55F mutant” value is on record as “around 1,000 fold”. Moreover, in the data set with CUMS model mice [5], the “OFT time spent in the center” value is given as “increased” and the “OFT total distance traveled” value is reported as “increased”. In the data set with CUMS model mice [6], the Sucrose preference result is “significantly counteract the reduction in sucrose preference induced by CUMS”.
As for `C[N+](C)(C)CCc1c[nH]c2ccc([O-])cc12` [Compound 5-OH-TMT, 5-hydroxy-N,N,N-dimethyltryptamine], the EC50 on 5-HT1A receptor (GloSensor cAMP, Gi activation, HEK 293T, Fig. 1A, read-out: EC50 at 5-HT1AR) worked out at 10 µM; on 5-HT2A receptor, 10 µM.

The record behind these values is article PMC12722636, “Structural Pharmacology of Bufotenine Derivatives in Activating the 5-HT1A Receptor for Therapeutic Potential in Depression and Anxiety” (Research, 2025).
